Consider 40 compounds from ChEMBL document CHEMBL1773053, “Immunosuppressive but non-LasR-inducing analogues of the Pseudomonas aeruginosa quorum-sensing molecule N-(3-oxododecanoyl)-l-homoserine lactone” (J Med Chem, 2011).

Data set [1] has as its target T1, Transcriptional activator protein LasR (Pseudomonas aeruginosa (strain ATCC 15692 / PAO1 / 1C / PRS 101 / LMG12228)) (UniProt P25084).
T1 sequence (whole entry): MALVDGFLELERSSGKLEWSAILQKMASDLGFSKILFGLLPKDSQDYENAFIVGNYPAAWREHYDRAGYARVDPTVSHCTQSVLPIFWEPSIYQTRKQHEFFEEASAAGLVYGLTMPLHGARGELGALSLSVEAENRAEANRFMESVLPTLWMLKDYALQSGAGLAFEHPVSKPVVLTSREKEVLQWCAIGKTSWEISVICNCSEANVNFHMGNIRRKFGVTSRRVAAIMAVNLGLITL
Nature of the data set: Induction of lasR-mediated quorum sensing in Pseudomonas aeruginosa PAKR02 harboring lasB::luxCDABE gene assessed as lasR-induction ratio at 10^-4 M after 24 hrs by bioluminescence assay relative to control.

In data set [2] the target is T1, Transcriptional activator protein LasR (Pseudomonas aeruginosa (strain ATCC 15692 / PAO1 / 1C / PRS 101 / LMG12228)). Nature of the data set: Inhibition of OdDHL-induced LasR activation in Pseudomonas aeruginosa PAKR02 harboring lasB::luxCDABE gene assessed as remaining Las activity at 10^-4 M after 24 hrs by bioluminescence assay.
The test system of data set [3] is Jurkat. Nature of the data set: Cytotoxicity against human Jurkat E6-1 cells assessed as cell viability after 24 hrs by trypan blue exclusion assay. It is filed as cell-based. As to conditions: for EC50: Homo sapiens, Jurkat; for Activity: human, jurkat.
A short description of data set [4]: Immunosuppressive activity in mouse concanavalin A-stimulated peripheral blood leukocyte assessed as inhibition of leukocyte proliferation by [3H]thymidine incorporation assay. It is filed as functional. Background: Incorporation of labelled thymidine or its analogues reports DNA synthesis.

For orientation: EC50 means the midpoint of the concentration-response curve.

Turning to `CCCCCCCCN(CCC)C(=O)CC(=O)N[C@H]1CCOC1=O`, the Ratio in data set [1] is 0.99. Further, the Activity in data set [2] is 101%. Besides, the figures for the half-maximal effective concentration (EC50) in data set [3] and in data set [4] were 200 µM and 28 µM, respectively.
For `CCCCCCCCCSCC(=O)N[C@H]1CCOC1=O`, in that order: 0.9, 51%, more than 1000 µM and more than 1000 µM.
On the same counts, the results for `CCCCCCCCN(C)C(=O)CC(=O)N[C@H]1CCOC1=O` are 0.91, 60%, more than 1000 µM and 22 µM.
On the same counts, the results for `CCCCCCCCCN(N)CC(=O)N[C@H]1CCOC1=O` are 1.03, 55%, 410 µM and 8.9 µM.
In the case of `CCCCCCCCCC(=O)CC(=O)N[C@H]1CCOC1=O`, the Ratio in data set [1] was 12.3. The EC50 amounted to 250 µM in data set [3] and 21 µM in data set [4].
For the compound `CCCCOCCCNC(=O)CC(=O)N[C@@H]1CCC[C@@H]1O`, in data set [1], the Ratio came out at 0.94. In data set [2], the Activity is 111%. In addition, the results for the EC50 in data set [3] and in data set [4] were more than 1000 µM and 160 µM, respectively.
For `CCCCCCCCOC(=O)CC(=O)N[C@H]1CCOC1=O`, in that order: 1.18, 46%, 500 µM and 37 µM.
On the same counts, the results for `CCCCCCCCNC(=O)CC(=O)Nc1ccccn1` are 0.91, 41%, more than 1000 µM and 18 µM.
For `CCCCCCCCNC(=O)CC(=O)Nc1ccccc1O`, in that order: 0.79, 29%, more than 1000 µM and 22 µM.
As for `CCCCCCCCNC(=O)CC(=O)N[C@H]1CCOC1=O`, the Ratio in data set [1] was 1.06. In data set [2], the Activity stood at 20%. Moreover, the EC50 was determined as 200 µM in data set [3] and 35 µM in data set [4].
Turning to `CCCCCCCCNC(=O)CC(=O)Nc1nccs1`, the Ratio in data set [1] came to 0.9. The Activity in data set [2] turned out to be 64%. Also, the EC50 in data set [3] came to 600 µM; in data set [4], 27 µM.
On the same counts, the results for `CCCCCCCCNC(=O)CC(=O)Nc1ccccc1C(N)=O` are 0.8, 23%, 120 µM and 25 µM.
Turning to `CCCCCCCCNC(=O)CC(=O)Nc1ccc2[nH]ncc2c1`, the Ratio in data set [1] is 1.1. In addition, the Activity in data set [2] turned out to be 62%. The values for the EC50 in data set [3] and in data set [4] were more than 1000 µM and 55 µM, respectively.
Take `CCCCCCCCCNC(=O)CC(=O)N[C@H]1CCOC1=O`: the Ratio in data set [1] turned out to be 1.01. In addition, the Activity in data set [2] was 3.4%. Further, the results for the EC50 in data set [3] and in data set [4] were 530 µM and 23 µM, respectively.
For `CCCCCCCCCC(=O)CC(=O)Nc1nccs1`, in that order: 0.87, 51%, 800 µM and 25 µM.
With `CCCCCCCCCC(=O)CC(=O)N[C@H]1CC(=O)NC1=O`, the Ratio in data set [1] worked out at 1.04. The Activity was 82% in data set [2] and “Non-toxic” in data set [3]. In addition, the EC50 in data set [4] is more than 1000 µM.
For `CCOCCOCCNC(=O)CC(=O)N[C@H]1CCOC1=O`, in data set [1], the Ratio came out at 1.02. Also, the Activity in data set [2] stood at 61%. Further, the EC50 in data set [3] and in data set [4] was more than 1000 µM in each case.
Consider `CCCCCCCCCS(=O)(=O)CC(=O)N[C@H]1CCOC1=O`, for which the Ratio in data set [1] came out at 0.92. Moreover, the Activity in data set [2] is 72%. The EC50 in data set [3] came to 200 µM; in data set [4] it was 31 µM.
Regarding `CCCCCCCCNC(=O)C(F)C(=O)N[C@H]1CCOC1=O` (some centres undefined), the Ratio in data set [1] amounted to 0.91. Moreover, the Activity in data set [2] was determined as 57%. The EC50 worked out at 800 µM in data set [3] and 26 µM in data set [4].
For `CCCCCCCCC[S+]([O-])CC(=O)N[C@H]1CCOC1=O` (some centres undefined), the results for the EC50 in data set [3] and in data set [4] were 720 µM and 27 µM, respectively.
Consider `CCCCCCCCCC(CC(=O)N[C@H]1CCOC1=O)OC(C)=O` (mixture of isomers), for which the Ratio in data set [1] was 1.13. The Activity in data set [2] is 70%. Further, the EC50 in data set [3] was 120 µM; in data set [4], 5.2 µM.
For `CCCCCCCCCCCNC(=O)CC(=O)N[C@H]1CCOC1=O`, in that order: 0.72, 14%, 140 µM and 12 µM.
On the same counts, the results for `CCCCCCCCNC(=O)CS(=O)(=O)N[C@H]1CCOC1=O` are 1.04, 86%, 220 µM and 9.1 µM.
Turning to `CCCCCCCCCC(=O)CC(=O)N[C@H]1CCC(=O)NC1=O`, the Ratio in data set [1] was determined as 1.03. In addition, the Activity in data set [2] was 71%; in data set [3] it was “Non-toxic”. Further, the EC50 in data set [4] came to 77 µM.
`CCCCCCCCNC(=O)CC(=O)Nc1cccc(C(N)=O)c1`: in data set [1], the Ratio was 0.81. The Activity in data set [2] was 59%. In addition, the EC50 in data set [3] is 700 µM; in data set [4], 15 µM.
On the same counts, the results for `CCCCCCCCN(CCO)C(=O)CC(=O)N[C@H]1CCOC1=O` are 1.01, 16%, 300 µM and 41 µM.
For `CCCCCCCCNC(=O)CC(=O)Nc1ccccc1C(=O)N(C)C`, in that order: 0.91, 37%, 160 µM and 22 µM.
`CCCCCCCCNC(=O)C(F)(F)C(=O)N[C@H]1CCOC1=O`: the Activity in data set [2] is 6%. In addition, the EC50 was more than 1000 µM in data set [3] and 97 µM in data set [4].
On to `CCCCOCCCNC(=O)CC(=O)N[C@H]1CCOC1=O`, for which the Ratio in data set [1] amounted to 0.97. For the same compound, the Activity in data set [2] worked out at 108%. In addition, the EC50 in data set [3] is more than 1000 µM; in data set [4], 101 µM.
Take `CCCCCCCCCN(CC(=O)N[C@H]1CCOC1=O)OCc1ccccc1`: the EC50 came to 63 µM in data set [3] and 17 µM in data set [4].
For the compound `CCCCCCCCC/C(O)=C1/C(=O)N[C@@H](CCO)C1=O`, in data set [1], the Ratio came out at 0.96. Moreover, the Activity in data set [2] stood at 21%. The EC50 in data set [3] was 52 µM; in data set [4], 29 µM.
For `CCCCCCCCNS(=O)(=O)CC(=O)N[C@H]1CCOC1=O`, in that order: 1.02, 101%, 900 µM and 13 µM.
For `CCCCCCCCCCCS(=O)(=O)CC(=O)N[C@H]1CCOC1=O`, in that order: 0.75, 76%, 170 µM and 8.3 µM.
For `CCCCCCCCCN(O)CC(=O)N[C@H]1CCOC1=O`, in that order: 0.99, 69%, 400 µM and 13 µM.
Turning to `CCOCCOCCNC(=O)CC(=O)N[C@@H]1CCC[C@@H]1O`, the Ratio in data set [1] worked out at 1.03. Moreover, the Activity in data set [2] is 89%. Also, the EC50 in data set [3] amounted to 700 µM; in data set [4] it was 192 µM.
`CCCCCCCCNC(=O)CC(=O)Nc1cc(Cl)ccc1O`: in data set [1], the Ratio was determined as 0.62. Further, in data set [2], the Activity amounted to 66%. The figures for the EC50 in data set [3] and in data set [4] were more than 1000 µM and 9.3 µM, respectively.
On the same counts, the results for `CCCCCCCCNC(=O)CC(=O)N[C@@H]1CCC[C@@H]1O` are 0.96, 55%, 400 µM and 43 µM.
On the same counts, the results for `CCCCCCCCNC(=O)CC(=O)N[C@@H]1CCCC[C@@H]1O` are 0.92, 45%, 400 µM and 32 µM.
On the same counts, the results for `CCCCCCCCNC(=O)CC(=O)NC1CCCCCC1` are 0.9, 19%, 78 µM and 14 µM.
In the case of `CCCCCCCCCCC[S+]([O-])CC(=O)N[C@H]1CCOC1=O` (some centres undefined), the Ratio in data set [1] is 0.77. In addition, the Activity in data set [2] stood at 63%. Moreover, the EC50 in data set [3] was determined as 45 µM; in data set [4], 8.2 µM.
